Assay results from patent US20250295627A1 (Leibniz-Institut Fuer Neurobiologie, priority 2022, published 2025).

Experiments:
Solubility in water = type: physicochemical
pCREB = test: Jacob-induced CREB shutoff in hippocampal primary neurons expressing phosphodeficient Jacob; type: cell-based, rat; conditions: 2 μM OA, 20 min, neurons expressing phosphodeficient Jacob in the nucleus
Description: Hippocampal neuronal cultures were transfected with plasmid DNA using Lipofectamine2000 (Thermo Fisher Scientific) following the manufacturer's instructions. For LMO4 knockdown cells were expressing shRNA for 5 days; for Jacob knockdown 4 days. […]. The target sequences for LMO4 and NLS-Jacob knockdown (Spilker et al., 2016) as well as scrambled controls are indicated in key resources table. For Aβ-induced CREB shutoff experiments Aβ oligomers (Anaspec) were prepared as described previously (see previous section, (Grochowska et al., 2017)). Transfected neurons were treated with 500 nM Aβ1-42 or Aβ3 (pE)-42. Nitarsone was diluted in distilled water.

GluR1 = type: cell-based, rat
HEK293T cells = test: Heterologous co-immunoprecipitation from HEK293T cells; type: cell-based; conditions: 20 nM staurosporine, 3 h
GST-LMO4 = target: T1, GST-LMO4 (Homo sapiens, UniProt P61968); test: Isothermal titration calorimetry (ITC); conditions: binding to LMO4, 25 mM Tris buffer pH 7.4, 50 mM NaCl
T1 construct: made in house; host or cells: E. coli BL21 (DE3)
T1 sequence (P61968 1-165): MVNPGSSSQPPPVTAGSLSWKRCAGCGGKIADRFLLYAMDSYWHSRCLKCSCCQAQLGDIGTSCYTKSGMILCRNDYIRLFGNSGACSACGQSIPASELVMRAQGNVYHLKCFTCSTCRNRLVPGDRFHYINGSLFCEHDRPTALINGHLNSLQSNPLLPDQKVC

Molecule: CC(NCCO)c1ccc([N+](=O)[O-])cc1 (stereo not shown) [NPEAE, 2-{[1-(4-nitrophenyl)ethyl]amino}ethan-1-ol]
- solubility in water (Solubility in water): soluble in water

Molecule: C=C1[C@@H](O)[C@@H]2O[C@]3(CC[C@H](/C=C/[C@@H](C)[C@@H]4CC(C)=C[C@@]5(O[C@H](C[C@@](C)(O)C(=O)O)CC[C@H]5O)O4)O3)CC[C@H]2O[C@@H]1[C@@H](O)C[C@H](C)[C@H]1O[C@@]2(CCCCO2)CC[C@H]1C [OA, okadaic acid]
- Jacob-induced CREB shutoff (pCREB): prevented Jacob-induced CREB shutoff

Molecule: NC1=N[C@H](O)[C@H]2[C@H]3O[C@]4(O)O[C@@H]([C@@H](O)[C@@]2(N1)[C@@H]4O)[C@]3(O)CO [TTX, tetrodotoxin]
- GluR1 surface expression (GluR1): induced upregulation of GluR1 surface expression

Molecule: CN[C@@H]1C[C@H]2O[C@@](C)([C@@H]1OC)n1c3ccccc3c3c4c(c5c6ccccc6n2c5c31)C(=O)NC4 [staurosporine]
- Jacob phosphorylation level (S180) (HEK293T cells): decreases Jacob phosphorylation level (S180)
- association of Jacob with CREB (HEK293T cells): decreases the association of Jacob with CREB
- association of Jacob with LMO4-tagRFP (HEK293T cells): increases its association with LMO4-tagRFP

B1: Jacob: synapto-nuclear protein messenger; recombinant protein titrated against LMO4 in ITC (protein, listed as Homo sapiens)
chain: MGAAASRRRALRSEAMSSVAAKVRAARAFGEYLSQSHPENRNGADHLLADAYSGHDGSPEMQPAPQNKRRLSLVSNGCYEGSLSEEPSIRKPAGEGPQPRVYTISGEPALLPSPEAEAIELAVVKGRRQRHPHHHSQPLRASPGGSREDVSRPCQSWAGSRQGSKECPGCAQLAPGPTPRAFGLDQPPLPETSGRRKKLERMYSVDRVSDDIPIRTWFPKENLFSFQTATTTMQAISVFRGYAERKRRKRENDSASVIQRNFRKHLRMVGSRRVKAQTFAERRERSFSRSWSDPTPMKADTSHDSRDSSDLQSSHCTLDEAFEDLDWDTEKGLEAVACDTEGFVPPKVMLISSKVPKAEYIPTIIRRDDPSIIPILYDHEHATFEDILEEIERKLNVYHKGAKIWKMLIFCQGGPGHLYLLKNKVATFAKVEKEEDMIHFWKRLSRLMSKVNPEPNVIHIMGCYILGNPNGEKLFQNLRTLMTPYRVTFESPLELSAQGKQMIETYFDFRLYRLWKSRQHSKLLDFDDVL
- Kd (GST-LMO4): 370 nM
